Laboratory results published in US20040194155A1, “HBV mutations associated with reduced susceptibility to adefovir” (priority 2002, published 2004).
Entries after “also recorded” stand apart in the source; their conditions may differ.

What was measured:
[1] = system: rtN236T mutant HBV (patient-derived clones); experiment: Whole HBV genome cell culture assay (HepG2 transient transfection), rtN236T clones; type: cell-based, hepatitis B virus; conditions: for susceptibility of rtN236T mutant (in words): in vitro; for IC50 Fold Change (rtN236T/Wild-type): patient-derived HBV strain, rtN236T vs wild-type (Table 7)
[2] = system: rtN236T + rtA181T double mutant HBV; experiment: Whole HBV genome cell culture assay, rtA181T introduced by site-directed mutagenesis into rtN236T clones of patient 0454-2506; type: cell-based, hepatitis B virus; conditions: adefovir, patient-derived HBV (0454-2506)
Source text: (§1) One patient (0454-2506) with the rtN236T mutation also developed a second conserved site mutation rtA181T at week 96. However, all week 96 isolates derived from the patient encoding both rtN236T and rtA181T were replication deficient in vitro; the reason for this is unclear. To assess the adefovir sensitivity of HBV containing both rtN236T and rtA181Tmutations, an artificial construct was obtained by modifying an existing patient-derived HBV clone. The rtA181T mutation was introduced by site-directed mutagenesis into replicating HBV clones from patient 0454-2506 that already encoded rtN236T. The resulting double mutants were replication competent and were used for adefovir susceptibility testing. […] The rtA181T mutation was also introduced into a standard HBV lab strain (genotyped, ayw) to assess the individual contribution of the rtA181T mutation.

[3] = system: rtK241E + rtK318Q mutant HBV (patient-derived clones); experiment: Whole HBV genome cell culture assay (HepG2 transient transfection), rtK241E + rtK318Q clones; conditions: in vitro, patient 0370-3503
Method: All conserved site substitutions were evaluated for their effects on adefovir susceptibility using a novel approach to generate full-length patient-derived HBV clones. […] Full-length viral genomes were cloned into the lethal selection vector pCAP^s at a Mlu Nl site through blunt-end ligation (PCR Cloning Kit, Roche) and then subcloned into plasmid pHY106, a pBluescript KS (+)-derived plasmid containing a CMV promoter and the minimal 5′ and 3′ HBV sequence necessary (approximately 180 total bases) for viral replication after the insertion of a genome-length clinical HBV isolate. Drug susceptibility of patient-derived clones was analyzed by transient transfection into HepG2 cells.
To investigate if these conserved site mutations conferred resistance to adefovir, adefovir susceptibility of HBV isolates derived from the above five patients was evaluated using a whole HBV genome cell culture assay as described above.

[4] = system: Lab HBV strain, rtA181T mutant; experiment: In vitro adefovir susceptibility of HBV lab strain with introduced rtA181T; type: cell-based, hepatitis B virus
Source text: as §1

[5] = system: wild-type HBV (patient-derived baseline clones); experiment: Whole HBV genome cell culture assay: patient-derived HBV clones transiently transfected into HepG2 cells, 7 days drug, Southern blot of intracellular replicating virus DNA; type: cell-based, hepatitis B virus; conditions: adefovir, patient-derived HBV (0454-2506), reference
[6] = system: HBV; experiment: Phase 3 clinical study GS-98-438, HBeAg negative chronic hepatitis B patients; type: in vivo, human
Method: The median serum HBV DNA levels declined by 3.5 and 3.9 log10 copies/mL from baseline to week 48 in the ADV 10 mg dose groups in HBeAg positive (Study GS-98-437) and in HBeAg negative (Study GS-98-438) chronic hepatitis B patients, respectively.
Adefovir resistance surveillance was performed in a blinded manner in HBeAg negative chronic hepatitis B patients treated for 96 weeks in a Phase 3 double-blind, randomized, placebo-controlled clinical study (GS-98-438) of adefovir dipivoxil 10 mg (ADV). The analysis included 79 patients who received ADV 10 mg daily for the first 48 weeks and were randomized to also receive ADV 10 mg during the second 48 weeks.
The reverse transcriptase (RT) domain of the HBV polymerase gene (rt1 to rt344) was sequenced for HBV DNA extracted from baseline and week 96 serum samples (or the last on-study sample) for the 79 patients treated continuously with ADV for 96 weeks if the samples had detectable serum HBV DNA (≧1000 copies/mL by Roche Amplicor™ PCR assay) at the time points tested.
Study GS-98-438 is a randomized, double-blind, placebo-controlled Phase 3 clinical study of the safety and efficacy of ADV for the treatment of patients with HBeAg negative/anti-HBe positive/HBV DNA positive chronic hepatitis B. A total of 184 patients received at least one dose of study medication during the first 48 weeks (n=61 and 123 for the placebo and ADV 10 mg groups, respectively). During the second 48 weeks, all placebo patients switched to ADV 10 mg daily while the ADV-treated patients were re-randomized to either continue ADV or receive placebo at a 2:1 ratio. Accordingly, all patients who received at least one dose of study drug during the second 48 weeks are classified into three groups: PLB-ADV (n=60), ADV-ADV (n=79), and ADV-PLB (n=40).
A virology substudy of Study GS-98-438 included all patients in the ADV 10 mg-ADV 10 mg group (n=79). The RT domain of the HBV polymerase gene from banked serum samples from these patients was genotypically analyzed at baseline, and either at week 96, or upon early termination during the second 48 weeks.
If the week 96 serum HBV DNA value was not available for a patient, the closest serum HBV DNA value prior to week 96 was used. All week 96 and the last on-drug samples are referred to as week 96 samples hereafter. Note that Roche Molecular Systems raised the lower limit of quantification of the HBV DNA PCR assay from 400 copies/mL to 1,000 copies/mL after Gilead completed the week 48 analyses for study 438.

Cc1cn([C@@H]2C[C@@H](O)[C@H](CO)O2)c(=O)[nH]c1=O [L-dT]
susceptibility of rtN236T mutant (in words) [1]: remained susceptible
IC50 Fold Change (rtN236T/Wild-type) [1]: 2.4 fold

C=C1[C@H](CO)[C@@H](O)C[C@@H]1n1cnc2c(=O)[nH]c(N)nc21 [Entecavir, entecavir]
susceptibility of rtN236T mutant (in words) [1]: remained susceptible
IC50 Fold Change (rtN236T/Wild-type) [1]: 0.67 fold

Nc1ncnc2c1ncn2CCOCP(=O)(O)O [Adefovir, adefovir]
IC50 Fold Change from Wild-Type [2]: 2.5 fold
susceptibility of rtK241E + rtK318Q double mutant (in words) [3]: not associated with resistance; also recorded: remained fully susceptible
resistance conferred by rtA181T mutation (in words) [4]: did not confer resistance; also recorded: does not confer resistance
IC50 Fold Change (rtN236T/Wild-type) [1]: 9.6 fold
IC50 Fold Change from Wild-Type [5]: 1 fold
reduction in serum HBV DNA ([6]; patient 0370-3503 (rtK241E + rtK318Q), week 96): > 5 log10
serum HBV DNA ([6]; patient 0370-3503, week 96): 3.1 log10 copies/mL
serum HBV DNA ([6]; patient 0370-3503, week 156 (February of 2003)): 3.6 log10 copies/mL

COc1ccc(Sc2nc(N)nc3c2ncn3CCOCP(=O)(OCC(F)(F)F)OCC(F)(F)F)cc1 [MCC-478]
IC50 Fold Change (rtN236T/Wild-type) [1]: 8.6 fold

C[C@H](Cn1cnc2c(N)ncnc21)OCP(=O)(O)O [Tenofovir, tenofovir]
IC50 Fold Change (rtN236T/Wild-type) [1]: 4.2 fold

CC(C)(C)C(=O)OCOP(=O)(COCCn1cnc2c(N)ncnc21)OCOC(=O)C(C)(C)C [ADV, adefovir dipivoxil]
number of patients with HBV DNA < 1000 copies/mL at week 96 ([6]; of 79 patients on ADV 10 mg for 96 weeks, Roche Amplicor PCR): 58
